The assay relates to red blood cells. Description: Incorporation of the ceramide conjugate into red blood cell membranes, fluorescence scored after labelling with Avidin Alexa Fluor 488. The format is cell-based.

Description: A 50 μL volume of packed red blood cells was re-suspended in an equal volume of a dispersion in phosphate buffered saline (PBS) (pH 7.2) of the ceramide conjugate (X). The re-suspended cells were incubated at 37° C. for two hours and then washed once with PBS. The modified cells were diluted with PBS to provide a suspension at a concentration equivalent to 5% of the packed cell volume. A 30 μL volume of the diluted suspension was then mixed with an equal volume of a 0.1 mg/mL solution of Avidin Alexa Flour™ 488 in PBS. The mixture was incubated at room temperature for 30 minutes before washing and re-suspending the modified cells in PBS. The fluorescence of cells in a 5 μL volume was observed using a microscope (Olympus BX51) at 400 x magnification.
The modified cells prepared using dispersions of the ceramide conjugate (X) at different concentrations (0 (control), 0.5, 5 and 50 μM) were scored.

As for “ceramide-β-Ala-CMG(2)-biot [ceramide conjugate (X)]”, the “Incorporation into cell membranes (fluorescent labelling of the modified cells)” value is recorded as “spontaneously incorporated into cell membranes”.

For the origin of these results see patent US20230374076A1, “THE PREPARATION OF CERAMIDE CONJUGATES AND DERIVATIVES OF SP[…]” (KODE BIOTECH LIMITED, priority 2017, published 2023).
